A short description of series [1]: mass balance: recovery of radioactivity in urine and feces. It counts as in vivo, human. The source says: Part 1 of the study included a screening phase of up to 28 days prior to drug administration to assess eligibility. Patients were admitted to the clinical research unit (CRU) at Royal Liverpool University Hospital (Liverpool, UK)/Clatterbridge Cancer Centre NHS Foundation Trust (Bebington, Wirral, UK) on day −1 and received a single dose of 60‐mg/100 μCi [^14C]‐pamiparib orally the morning of day 1. Patients remained in the CRU until completion of assessments on day 7, when discharge criteria of ≈90% of the radioactive dose being recovered or <1% of the radioactive dose being recovered in urine and feces for 2 consecutive 24‐hour collection intervals were met. If discharge criteria were not met by day 7, patients collected 24‐hour excreta samples up to day 14 on an outpatient basis. Part 2 of the study, evaluating the safety/tolerability and antitumor activity of 60 mg twice‐daily pamiparib in patients with advanced and/or metastatic solid tumors, is ongoing and is not included in this report.
Total radioactivity concentrations of [^14C]‐pamiparib in whole blood, plasma, urine, and feces were determined by liquid scintillation counting (LSC). Radioactivity in each sample was measured for 5 minutes using a Packard Tri‐Carb liquid scintillation counter model 2100TR, 2900TR, or 3100TR (Canberra Packard, Pangbourne, Berks, Australia) with the facilities for computing quench‐corrected disintegrations per minute. Metabolite identification in plasma, urine, and feces was conducted by LC‐MS. Quantitation of the metabolites present in plasma, urine, and feces was based on the profiles of radioactivity. The limit of quantitation for radioactivity in plasma, urine, and feces was set at 1% of each chromatographic analysis (run) and 10 counts per minute (cpm) peak height; therefore, radioactive peaks that were <1% of the total run or <10 cpm peak height were reported as not detected. […]
Each aliquot of urine (about 1 mL, weighed) was added directly to liquid scintillant prior to LSC. […] The radioactivity in each pooled sample was determined by LSC. […]

Details of series [2]: method as in data on file. The note with it: suspension in water, room temperature; ref data on file; cited from earlier work.
The conditions of series [3]: cited from earlier work.
Series [4] in a line: safety and tolerability in patients. It counts as in vivo, human. Here is the method:
Safety and tolerability were evaluated throughout the study, and AEs were assessed from the time of obtaining informed consent to discharge from the study and follow‐up visit or early withdrawal. Scheduled safety assessments of 12‐lead electrocardiogram, physical examination, vital signs, and clinical laboratory investigations (clinical chemistry, hematology, serology, and urinalysis) occurred before administration of the study drug and at discharge and follow‐up visit.

For another series, the system named is PARP2. The arrangement: method as in PMID 33264017. The note with it: read-out: PARP2 inhibition IC50; cited from earlier work.
The mark [5] stands for this setting: 60‐mg single dose, n = 11, ref BGB‐290‐AU‐002, NCT02361723.

Read-outs that look alike come from different tables or passages of the source.

As a reminder, the IC50 is the concentration that inhibits the measured activity by half.

As to `C[C@]12CCCN1CC1=NNC(=O)c3cc(F)cc4[nH]c2c1c34` [Pamiparib], the “administered radioactivity excreted in the feces” value in series [1] (192‐hour collection period) is 26.9% ± 6.8%. Besides, the “overall mean total recovery of radioactivity in urine and feces” value in series [1] (192‐hour collection period, mean ± SD, n = 4) is 84.7% ± 3.5%. Besides, the “mass balance achieved for all 4 subjects” value in series [1] (individual subjects) was “higher than 80%”. For the same molecule, in series [2], the “chemical stability and radiopurity of the suspension established for” value is 48 h. In series [3] (setting [5]), the “AUC0‐inf, geometric mean” value is 32 005 ng·h/mL and the “Cmax, geometric mean” value is 1881 ng/mL. Moreover, in series [3] (tested dose range 2.5‐120 mg), the “pharmacokinetic profile (dose linearity)” value is “linear”. The tolerability entry in series [3] (up to 60 mg, patients) was “generally well tolerated”. In series [4] (4 patients), the “patients with TEAEs” value is given as 100% and the “severity of all TEAEs” value is “mild (CTCAE grade 1)”. Further, the “TEAEs considered related to [^14C]‐pamiparib, percent of events” value in series [4] (in 2 patients) came to 31.3%. In series [4] (in 4 patients), the “TEAEs considered unrelated to [^14C]‐pamiparib, percent of events” value came to 68.8% and the “TEAEs reported (events)” value amounted to 16. Further, the tolerability result in series [4] (single dose 60 mg [^14C]‐pamiparib, 4 patients) was “well tolerated”. In addition, the “deaths or serious AEs” value in series [4] (single dose 60 mg, 4 patients) was “no deaths or serious AEs”. In the series with PARP2, the IC50 was 0.9 nM.

(Values after publication PMC8453745, “Human Mass Balance and Metabolite Profiling of [^14C]‐Pamiparib, a Poly (ADP‐Ribose) Polymerase Inhibitor, in Patients With Advanced Cancer” (Clinical Pharmacology in Drug Development, 2021).)
